Laboratory results as given in PubChem BioAssay (NCI).
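Protocol summary: plate cells (96-well), add compound at 5 concentrations, incubate 48 h, interpolate endpoints linearly. Here, GI50 denotes the concentration required for 50% inhibition of growth. TGI marks complete inhibition of growth.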

Legend:
Assay in all cases: inhibition of tumour cell growth, NCI panel, 48 h
OVCAR-3 ovarian = system: OVCAR-3 ovarian
SN12C renal = system: SN12C renal
HCC-2998 colon = system: HCC-2998 colon
M14 melanoma = system: M14 melanoma
HT29 colon = system: HT29 colon
SK-MEL-28 melanoma = system: SK-MEL-28 melanoma
NCI-H23 lung = system: NCI-H23 lung
NCI-H460 lung = system: NCI-H460 lung
K-562 leukemia = system: K-562 leukemia
MCF7 breast = system: MCF7 breast

| Compound | TGI (OVCAR-3 ovarian) | TGI (SN12C renal) | TGI (HCC-2998 colon) | TGI (M14 melanoma) | TGI (HT29 colon) | TGI (SK-MEL-28 melanoma) | TGI (NCI-H23 lung) | TGI (NCI-H460 lung) | TGI (K-562 leukemia) | TGI (MCF7 breast) | GI50 (OVCAR-3 ovarian) | GI50 (SN12C renal) | GI50 (M14 melanoma) | GI50 (HT29 colon) | GI50 (SK-MEL-28 melanoma) | GI50 (NCI-H23 lung) | GI50 (NCI-H460 lung) | GI50 (K-562 leukemia) |
| --- | --- | --- | --- | --- | --- | --- | --- | --- | --- | --- | --- | --- | --- | --- | --- | --- | --- | --- |
| CCCCCCCCCCCCCCCCCC(=O)OCC1OC(OC)C(NC(=O)N(CCCl)N=O)C(O)C1O (stereo not drawn) | 65.6 µM | 30.3 µM | > 100 µM | > 100 µM | 63.6 µM | 53.1 µM | 43 µM | 33.5 µM | > 100 µM | – | – | – | – | – | – | – | – | – |
| CCOC(=O)C12CC(C)=C(C)CC1CCCc1ccccc12 (stereo not drawn) | 42.6 µM | 58.3 µM | 28.1 µM | > 100 µM | 36.5 µM | 92.7 µM | > 100 µM | 32.7 µM | 78.2 µM | 35.2 µM | – | – | – | – | – | – | – | – |
| Cc1cc2c(cc1Cl)SC(c1ccccc1O)NS2(=O)=O (stereo not drawn) | 78.4 µM | > 100 µM | > 100 µM | > 100 µM | > 100 µM | > 100 µM | > 100 µM | > 100 µM | > 100 µM | > 100 µM | – | – | – | – | – | – | – | – |
| Cn1c(=O)ccc2c(=O)c3ccccc3oc21 | > 100 µM | > 100 µM | > 100 µM | > 100 µM | > 100 µM | > 100 µM | > 100 µM | > 100 µM | > 100 µM | – | – | – | – | – | – | – | – | – |
| O=C([CH-]C(=O)c1ccccc1)c1ccccc1.O=C([CH-]C(=O)c1ccccc1)c1ccccc1.O=C([CH-]C(=O)c1ccccc1)c1ccccc1.[Cl-].[Hf+4] | > 100 µM | > 100 µM | – | 32.9 µM | > 100 µM | 82.5 µM | 83.4 µM | 67.7 µM | > 100 µM | – | 15.2 µM | 41.3 µM | 13.5 µM | 33.9 µM | 20.3 µM | 15.8 µM | 13.1 µM | 7.11 µM |
| O=C(CSSCC(=O)OCCS(=O)(=O)Nc1ccc(Br)cc1)OCCS(=O)(=O)Nc1ccc(Br)cc1 | 37.6 µM | 59.8 µM | 25.9 µM | 39.1 µM | 31.8 µM | 96.4 µM | 64 µM | > 100 µM | > 100 µM | – | – | – | – | – | – | – | – | – |
| Cc1cn(Cc2cn(CC3OC(n4cc(C)c(=O)[nH]c4=O)CC3O)nn2)c(=O)[nH]c1=O (stereo not drawn) | > 100 µM | > 100 µM | > 100 µM | > 100 µM | – | > 100 µM | > 100 µM | – | – | > 100 µM | – | – | – | – | – | – | – | – |
| N=C(N)c1ccc(N=Nc2c(O)ccc3cc4c(N=Nc5ccc(C(=N)N)cc5)c(O)ccc4cc23)cc1 | > 100 µM | > 100 µM | > 100 µM | > 100 µM | > 100 µM | > 100 µM | – | > 100 µM | > 100 µM | > 100 µM | – | – | – | – | – | – | – | – |
| CC(C)(C)c1cc(-c2nc3ccc(N4CCN(CCO)CC4)cc3[nH]2)cc(C(C)(C)C)c1O | > 100 µM | > 100 µM | – | – | – | 3.1 µM | > 100 µM | – | – | – | 3.36 µM | 3.77 µM | – | – | 1.68 µM | 4.65 µM | – | – |
| CCCC[C@H]1C(=O)O[C@H](C)[C@H](NC(=O)c2cccc(NC=O)c2OC)C(=O)O[C@@H](C)[C@@H]1OC(=O)CC(C)C (tested in a mixture with another compound) | 27.7 µM | 44.2 µM | 80.6 µM | 46.6 µM | 33.1 µM | 52.8 µM | 26.5 µM | 21.4 µM | 58 µM | 28.1 µM | – | – | – | – | – | – | – | – |
| COc1cc(C2C(=O)C(Cl)N2Nc2nc(C)cc(=O)[nH]2)cc(OC)c1OC (stereo not drawn) | 45.1 µM | 53.1 µM | 33 µM | 26.5 µM | 66.2 µM | 49.6 µM | 50.3 µM | 21.9 µM | 41.1 µM | – | – | – | – | – | – | – | – | – |
| O=C(NC(Cc1ccc(Cl)cc1)C(=O)O)c1ccc(I)cc1 (stereo not drawn) | > 100 µM | > 100 µM | – | – | > 100 µM | > 100 µM | > 100 µM | > 100 µM | > 100 µM | > 100 µM | – | – | – | – | – | – | – | – |
| Cc1ccc2c3c1[C@@H]1O[C@@H]1c1cccc(c1-3)[C@@H]1O[C@H]21 | – | 25.5 µM | – | 25.1 µM | 23.4 µM | 23.5 µM | 31.8 µM | – | 37.5 µM | 34.8 µM | – | – | – | – | – | – | – | – |
| COc1ccc(N=Nc2c(N)nn(C)c2N)cc1 | > 100 µM | > 100 µM | – | > 100 µM | > 100 µM | > 100 µM | > 100 µM | > 100 µM | > 100 µM | – | – | – | – | – | – | – | – | – |
| C/C(=C\C(=N\NC(=N)N)c1ccccc1)c1ccccc1 | 1.03 µM | 3.09 µM | 1.86 µM | 2.47 µM | 3.44 µM | 8.86 µM | 4.01 µM | 11.1 µM | 3.88 µM | 1.58 µM | – | – | – | – | – | – | – | – |
| O=c1[nH]c(=O)n(CCOCP(=O)(O)O)nc1Br | > 100 µM | > 100 µM | > 100 µM | > 100 µM | > 100 µM | > 100 µM | > 100 µM | > 100 µM | – | > 100 µM | – | – | – | – | – | – | – | – |
